Test results published in publication PMC10770970, “Synthesis and cytotoxic activity evaluation of novel imidazopyridine carbohydrazide derivatives” (BMC Chemistry, 2024).
“Also recorded” adds a separate entry of the source.

Key:
[1] = test system: K562 (human chronic myelogenous leukemia) cells; test: MTT reduction cytotoxicity assay, K562; type: cell-based; settings: ± S.E.M., max tested 100 µM
Procedure: (§1) All synthesized compounds were evaluated for cytotoxic activity against three human cancer cell lines including MCF-7, HT-29, and K562 by employing an MTT (3-(4,5-dimethylthiazol-2-yl)-2,5-diphenyltetrazolium bromide) assay. […] Cisplatin and doxorubicin were tested as standard chemotherapeutic reference agents.
(§2) MCF-7 (human breast adenocarcinoma), HT-29 (Human colorectal adenocarcinoma), K562 (human chronic myelogenous leukemia), and Vero (kidney epithelial cells of African green monkey) cells were obtained from Iranian Biological Resource Center, Tehran, Iran. MCF-7, K562, and Vero cells were cultured in RPMI 1640 medium containing 10% heat-inactivated fetal bovine serum (FBS) and 1% penicillin/streptomycin, while HT-29 cells were grown in DMEM low glucose, containing 20% heat-inactivated FBS and 1% penicillin/streptomycin. All cells were grown in monolayer culture at 37 °C in a humidified incubator with 5% CO2.
(§3) Assessment of cell viability after exposure of cancer and non-cancer cells to synthetic compounds was performed using the MTT (3-(4,5-dimethylthiazol-2-yl)-2,5-diphenyltetrazolium bromide) reduction assay. Cells were plated in 96-well microplates at densities of 30,000 cells/mL (100 μL in each well). The plates were incubated overnight at 37 °C and then 50 μL of the growth medium was replaced with the same amount of fresh medium containing 3–4 different concentrations of synthesized analogs at the final concentrations of 10–100 µM. Test compounds were initially dissolved in DMSO and then diluted in the growth medium. The upper limit of DMSO concentration in each well was 0.5%. After 72 h of incubation, 80 μL of the solution in each well was substituted with the same quantity of the growth medium comprising of MTT solution at 0.5 mg/mL. Cells were subsequently incubated at 37 °C for 4 h and then 80 μL of the solution in each well was removed. The introduction of DMSO (200 μL) to each well caused the formazan crystals formed inside the viable cells to dissolve. The process lasted 1.5 h (1 h of incubation and 30 min of shaking). The optical absorbance of the final solution was quantified at the wavelength of 570 nm using a microplate reader. IC50 values for all derivatives were calculated using CurveExpert 1.34 software.

[2] = test system: HT-29 (Human colorectal adenocarcinoma) cells; test: MTT reduction cytotoxicity assay, HT-29; type: cell-based; settings: ± S.E.M., max tested 100 µM
Procedure: as §1, §2, §3

[3] = test system: MCF-7 (human breast adenocarcinoma) cells; test: MTT reduction cytotoxicity assay, MCF-7; type: cell-based; settings: ± S.E.M., max tested 100 µM
Procedure: as §1, §2, §3

MCF-7 cells [4] = test: Cell cycle analysis by RNase/propidium iodide flow cytometry; type: cell-based, human; settings: 48 h; for Percent of MCF-7 cells in Sub G1: control 0.8 ± 0.3; for Percent of MCF-7 cells in S: control 11.7 ± 2.3; for Percent of MCF-7 cells in G2/M: control 26.1 ± 2.9; for Percent of MCF-7 cells in G0/G1: control 61.4 ± 1.4
Procedure: Fig. 3 Effect of compound 7d on cell cycle phase distribution of MCF-7 cells. The analysis of cells in different phases of the cell cycle was performed using propidium iodide (PI)-based assessment of cell cycle by flow cytometry. […] The cells were then collected, washed with PBS and fixed with 70% ethanol overnight at −20 °C. After 24 h, the fixed cells were incubated in a PI-RNase solution at room temperature and 10,000 cells were analyzed using a FACS Calibur flow cytometer (BD Biosciences)
The analysis of cells in different phases of the cell cycle and the sub-G1 phase were monitored using RNase/propidium iodide (PI)-based assessment of the cell cycle by flow cytometry. […] At the end of the incubation, the culture media in each well were collected and the cells were washed with PBS. Then, they were fixed with 70% ethanol overnight at −20 °C. After 24 h, the fixed cells were washed with PBS and subsequently stained with DNA staining solution (PI 20 μg/mL and RNase 200 μg/mL) at room temperature for 30 min in the dark. Ten thousand cells of each sample were analyzed using a FACS Calibur flow cytometer (BD Biosciences) and the percentage of the cells in sub-G1, G0/G1, S, and G2/M phases were calculated using CellQuest (BD, USA) software.

MCF-7 cells [5] = test: Apoptosis by Hoechst 33,258 staining; type: cell-based, human; settings: 100 µM, 72 h
Procedure: This also further adds to the potential value of this derivative as an anticancer agent, as it is known that apoptosis evasion is an important hallmark of cancer, and apoptosis induction capacity is an important feature of any successful therapeutic agent.
Fig. 4 Measurement of apoptosis induced by Hoechst 33,258 staining assay. […] The cells were then stained with 2.5 µg/ml Hoechst 33,258 after being fixed with 4% cold paraformaldehyde (PFA) and imaged using a fluorescence microscope (Magnification: 500 X). Apoptotic cells as featured by nuclear shrinkage, fragmentation, condensation, etc., are shown by red arrows
Hoechst 33,258 staining assay was used to determine apoptosis induction in cancer cells. Hoechst 33,258 is a fluorescent dye that binds to minor grooves in DNA and is commonly used to determine the characteristic features of apoptosis including condensation and fragmentation, etc. in the cell’s nuclei. MCF-7 cells were cultured in 6-well plates at a density of 10^5 cells/ml and exposed to 100 µM of compound 7d for 72 h. The growth medium was completely removed at the end of the incubation time and the cells were fixed with 1 ml of 4% cold freshly prepared paraformaldehyde (PFA) and incubated for 20 min. […] In the end, the cells were washed twice with PBS and imaged with a fluorescence microscope (Nikon model DS-Ri2).

[6] = test system: Vero (kidney epithelial cells of African green monkey) cells; test: MTT reduction cytotoxicity assay, Vero non-cancer cells; type: cell-based; settings: 72 h, ± S.E.M., max tested 100 µM
Procedure: as §1, §2, §3

Row | SMILES | melting point [°C] | IC50 ([1]; Homo sapiens, K562, 72 h) [µM] | IC50 ([2]; Homo sapiens, HT-29, 72 h) [µM] | IC50 ([3]; Homo sapiens, MCF7, 72 h) [µM] | IC50 ([6]; Chlorocebus sabaeus, Vero) [µM] | other results
1 | O=C(NN=Cc1ccc(Br)cc1)c1cn2ccccc2n1 [Compound 7d, N´-(4-bromobenzylidene)imidazo[1,2-a]pyridine-2-carbohydrazide] | 230 to 232 | > 100 | 13.4 ± 1.3 | 22.6 ± 1 | > 100 | Percent of MCF-7 cells in Sub G1 (MCF-7 cells [4]; 7d 20 µM): 0.8 ± 0.6%; Percent of MCF-7 cells in S (MCF-7 cells [4]; 7d 20 µM): 11.9 ± 5.7%; Percent of MCF-7 cells in G2/M (MCF-7 cells [4]; 7d 20 µM): 23.3 ± 10.0%; Percent of MCF-7 cells in G0/G1 (MCF-7 cells [4]; 7d 20 µM): 64.2 ± 7.6%; Percent of MCF-7 cells in Sub G1 (MCF-7 cells [4]; 7d 50 µM): 0.8 ± 0.6%; Percent of MCF-7 cells in S (MCF-7 cells [4]; 7d 50 µM): 11.1 ± 4.9%; Percent of MCF-7 cells in G2/M (MCF-7 cells [4]; 7d 50 µM): 21.1 ± 8.8%; Percent of MCF-7 cells in G0/G1 (MCF-7 cells [4]; 7d 50 µM): 67.0 ± 8.4%; Percent of MCF-7 cells in Sub G1 (MCF-7 cells [4]; 7d 100 µM): 1.1 ± 0.9%; Percent of MCF-7 cells in S (MCF-7 cells [4]; 7d 100 µM): 10.2 ± 5.3%; Percent of MCF-7 cells in G2/M (MCF-7 cells [4]; 7d 100 µM): 21.5 ± 7.2%; Percent of MCF-7 cells in G0/G1 (MCF-7 cells [4]; 7d 100 µM): 67.2 ± 7.5%; Effect on cell cycle phase distribution (in words) (MCF-7 cells [4]; MCF-7 cells): dose-dependent increase in the G0/G1 phase and a concomitant decrease in the G2/M phase; also recorded: increased the number of MCF-7 cells in the G0/G1 phase; also recorded: increase the number of cancer cells in the G0/G1 phase; Apoptosis induction (in words) (MCF-7 cells [5]): induce apoptosis; also recorded: clear signs of apoptosis including nuclear condensation and fragmentation; IC50 Vero [6]: completely inactive; also recorded: no toxic effect
2 | COc1cccc2c1C(=O)c1c(O)c3c(c(O)c1C2=O)C[C@@](O)(C(=O)CO)C[C@@H]3O[C@H]1C[C@H](N)[C@H](O)[C@H](C)O1 [Doxorubicin, reference compound] |  |  |  |  | 2.6 ± 0.3 | 
3 | C#CCNNC(=O)c1cn2ccccc2n1 [Compound 9, N´-(Prop-2-yn-1-yl) imidazo[1,2-a]pyridine-2-carbohydrazide] | 142 to 144 | 23.7 ± 2.3 | 21.4 ± 1.9 | 70.1 ± 5.3 | 73 ± 9.9 | 
4 | Cc1ccc(C=NNC(=O)c2cn3ccccc3n2)cc1 [Compound 7e, N´-(4-methylbenzylidene)imidazo[1,2-a]pyridine-2-carbohydrazide] | 180 to 182 | > 100 | > 100 | > 100 |  | 
5 | O=C(NNCc1cn(Cc2ccccc2)nn1)c1cn2ccccc2n1 [Compound 11a, N´-((1-benzyl-1H-1,2,3-triazol-4-yl)methyl)imidazo[1,2-a]pyridine-2-carbohydrazide] |  | > 100 | 61.2 ± 6.3 | 40.3 ± 2.9 | > 100 | IC50 Vero [6]: completely inactive
6 | O=C(NN=Cc1ccc(Cl)cc1)c1cn2ccccc2n1 [Compound 7c, N´-(4-chlorobenzylidene)imidazo[1,2-a]pyridine-2-carbohydrazide] | 226 to 228 | > 100 | 85.4 ± 10.3 | 64.8 ± 11.8 | 65.6 ± 4.5 | 
7 | O=C(NN=Cc1ccc(F)cc1)c1cn2ccccc2n1 [Compound 7b, N´-(4-fluorobenzylidene)imidazo[1,2-a]pyridine-2-carbohydrazide] | 234 to 236 | > 100 | > 100 | > 100 |  | 
8 | O=C(NN=Cc1ccccc1)c1cn2ccccc2n1 [Compound 7a, N´-benzylidene imidazo[1,2-a]pyridine-2-carbohydrazide] | 257 to 259 | > 100 | > 100 | > 100 |  | 
9 | N.N.[Cl][Pt][Cl] [Cisplatin, reference compound] |  |  |  |  |  | IC50 ([1]; 72 h): 9.4 ± 0.5 µM; IC50 ([2]; 72 h): 22.4 ± 5.8 µM; IC50 ([3]; 72 h): 25.9 ± 6.9 µM; IC50 [6]: 10.6 ± 1.3 µM
10 | NNC(=O)c1cn2ccccc2n1 [Compound 5, imidazo[1,2-a]pyridine-2-carbohydrazide] |  | > 100 | > 100 | > 100 |  | 

Continued, in another order:

Row | melting point [°C] | SMILES | IC50 ([1]; Homo sapiens, K562, 72 h) [µM] | IC50 ([2]; Homo sapiens, HT-29, 72 h) [µM] | IC50 ([3]; Homo sapiens, MCF7, 72 h) [µM] | IC50 ([6]; Chlorocebus sabaeus, Vero) [µM] | other results
11 | 140 to 142 | Cc1ccc(Cn2cc(CNNC(=O)c3cn4ccccc4n3)nn2)cc1 [Compound 11e, N´-((1-(4-methylbenzyl)-1H-1,2,3-triazol-4-yl)methyl)imidazo[1,2-a]pyridine-carbohydrazide] | > 100 | > 100 | > 100 |  | 
12 | 205 to 207 | O=C(NNCc1cn(Cc2ccc(F)cc2)nn1)c1cn2ccccc2n1 [Compound 11b, N´-((1-(4-fluorobenzyl)-1H-1,2,3-triazol-4-yl)methyl)imidazo[1,2-a]pyridine-carbohydrazide] | > 100 | > 100 | > 100 |  | 
13 | 186 to 188 | O=C(NNCc1cn(Cc2ccc(Br)cc2)nn1)c1cn2ccccc2n1 [Compound 11d, N´-((1-(4-bromobenzyl)-1H-1,2,3-triazol-4-yl)methyl)imidazo[1,2-a]pyridine-carbohydrazide] | > 100 | 83.9 | > 100 | > 100 | IC50 K562 ([1]; 72 h): no activity; IC50 ([2]; 72 h): 83.8 ± 13.1 µM; IC50 MCF-7 ([3]; 72 h): no activity; IC50 Vero [6]: completely inactive
14 | 193 to 195 | O=C(NNCc1cn(Cc2ccc(Cl)cc2)nn1)c1cn2ccccc2n1 [Compound 11c, N´-((1-(4-chlorobenzyl)-1H-1,2,3-triazol-4-yl)methyl)imidazo[1,2-a]pyridine-carbohydrazide] | > 100 | > 100 | > 100 |  | 
